From patent publication US11339130B1 (Blade Therapeutics, Inc., priority 2016, dated 2022) come the findings set out here.

Where two headings read alike, the source gives them in different places. Bounds are passed on as bounds.

One assay has as its target T1, Human Calpain 1/NS1 (Homo sapiens, UniProt P07384).
T1 sequence (P07384 1-714): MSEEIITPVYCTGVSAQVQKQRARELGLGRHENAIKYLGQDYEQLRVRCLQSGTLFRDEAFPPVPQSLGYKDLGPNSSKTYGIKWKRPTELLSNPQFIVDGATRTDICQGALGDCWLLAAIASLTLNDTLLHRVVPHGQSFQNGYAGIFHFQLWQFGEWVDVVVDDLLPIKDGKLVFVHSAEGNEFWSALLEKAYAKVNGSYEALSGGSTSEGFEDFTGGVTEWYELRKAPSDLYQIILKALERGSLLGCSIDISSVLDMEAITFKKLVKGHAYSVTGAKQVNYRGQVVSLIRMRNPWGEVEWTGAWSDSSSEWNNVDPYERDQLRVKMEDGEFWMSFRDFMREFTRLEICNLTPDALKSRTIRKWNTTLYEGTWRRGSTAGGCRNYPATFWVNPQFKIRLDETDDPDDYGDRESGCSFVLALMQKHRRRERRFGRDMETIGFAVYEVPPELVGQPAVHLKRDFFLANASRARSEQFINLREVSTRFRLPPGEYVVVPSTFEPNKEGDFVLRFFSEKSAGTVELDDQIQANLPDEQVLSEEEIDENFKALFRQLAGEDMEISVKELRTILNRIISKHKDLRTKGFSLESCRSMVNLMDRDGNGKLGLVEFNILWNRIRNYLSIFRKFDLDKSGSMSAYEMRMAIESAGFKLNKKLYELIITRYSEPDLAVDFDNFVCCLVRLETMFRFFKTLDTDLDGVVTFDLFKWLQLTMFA
T1 sequence (P04632 1-268 partner): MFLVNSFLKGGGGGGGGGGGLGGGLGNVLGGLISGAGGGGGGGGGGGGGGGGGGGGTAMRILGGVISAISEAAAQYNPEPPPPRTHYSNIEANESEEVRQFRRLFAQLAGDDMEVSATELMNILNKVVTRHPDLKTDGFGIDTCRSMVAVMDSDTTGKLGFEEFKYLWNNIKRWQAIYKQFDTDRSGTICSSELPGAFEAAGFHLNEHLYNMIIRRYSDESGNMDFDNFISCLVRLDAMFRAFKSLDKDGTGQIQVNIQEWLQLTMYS
Briefly: Calpain inhibition continuous fluorescence (FRET) assay, Human Calpain 1/NS1. In kind it is biochemical. The following applies: read-out: Human Calpain 1/NS1 IC50. The essentials: (§1)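 Continuous FRET read (ex 490/em 520 nm, 10 min) of calpain 1, 2 or 9 cleaving an internally quenched 5-FAM peptide, triggered by substrate with CaCl2 after enzyme–inhibitor incubation at ambient 25 °C, pH 7.5 Tris/NaCl/DTT buffer. IC50 from initial rates (1-5 min) via 4-parameter fit.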

The target of a further assay is T2, Human Calpain 2/NS1 (Homo sapiens, UniProt P17655).
T2 sequence (P17655 1-700): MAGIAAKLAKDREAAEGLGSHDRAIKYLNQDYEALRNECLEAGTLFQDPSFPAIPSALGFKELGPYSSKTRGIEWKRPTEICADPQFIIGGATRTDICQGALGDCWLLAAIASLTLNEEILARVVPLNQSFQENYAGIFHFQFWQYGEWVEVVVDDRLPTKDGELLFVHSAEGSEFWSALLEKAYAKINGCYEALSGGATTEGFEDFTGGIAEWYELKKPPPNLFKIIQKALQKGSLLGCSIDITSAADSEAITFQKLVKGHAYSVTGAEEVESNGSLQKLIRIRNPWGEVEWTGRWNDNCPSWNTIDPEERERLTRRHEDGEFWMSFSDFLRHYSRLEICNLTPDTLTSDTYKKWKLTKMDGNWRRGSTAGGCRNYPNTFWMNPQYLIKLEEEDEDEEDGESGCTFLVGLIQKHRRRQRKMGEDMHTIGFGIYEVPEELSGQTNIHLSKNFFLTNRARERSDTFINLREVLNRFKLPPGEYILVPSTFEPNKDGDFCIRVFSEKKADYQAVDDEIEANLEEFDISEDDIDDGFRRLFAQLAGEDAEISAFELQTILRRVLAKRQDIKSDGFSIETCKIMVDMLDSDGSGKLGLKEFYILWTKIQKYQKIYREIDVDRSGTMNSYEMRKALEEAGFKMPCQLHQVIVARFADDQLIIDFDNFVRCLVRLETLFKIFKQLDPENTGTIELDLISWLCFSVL
T2 sequence (P04632 1-268 partner): T1 sequence (P04632 1-268 partner)
As to the kind of experiment: Calpain inhibition continuous fluorescence (FRET) assay, Human Calpain 2/NS1. In kind it is biochemical. The following applies: read-out: Human Calpain 2/NS1 IC50. A digest of the protocol:
as §1

Another assay concerns the target T3, Human Calpain 9/NS1 (Homo sapiens, UniProt O14815).
T3 sequence (O14815 1-690): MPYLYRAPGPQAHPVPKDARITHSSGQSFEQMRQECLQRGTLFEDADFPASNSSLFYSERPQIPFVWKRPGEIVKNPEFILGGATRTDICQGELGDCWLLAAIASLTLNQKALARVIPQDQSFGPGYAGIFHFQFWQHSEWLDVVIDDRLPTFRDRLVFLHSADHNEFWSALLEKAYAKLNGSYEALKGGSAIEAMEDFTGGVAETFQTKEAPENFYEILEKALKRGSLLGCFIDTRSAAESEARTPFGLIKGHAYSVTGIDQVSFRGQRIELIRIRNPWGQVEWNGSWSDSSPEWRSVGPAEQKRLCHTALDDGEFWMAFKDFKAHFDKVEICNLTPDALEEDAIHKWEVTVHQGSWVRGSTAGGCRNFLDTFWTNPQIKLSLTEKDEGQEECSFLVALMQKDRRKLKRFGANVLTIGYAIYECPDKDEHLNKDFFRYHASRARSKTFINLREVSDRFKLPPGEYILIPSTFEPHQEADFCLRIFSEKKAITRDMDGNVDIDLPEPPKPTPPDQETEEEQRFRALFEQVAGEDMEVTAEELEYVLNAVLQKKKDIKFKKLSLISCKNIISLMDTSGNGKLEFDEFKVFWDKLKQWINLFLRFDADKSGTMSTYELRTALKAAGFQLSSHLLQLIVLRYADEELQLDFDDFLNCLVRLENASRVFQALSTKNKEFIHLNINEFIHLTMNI
T3 sequence (P04632 1-268 partner): T1 sequence (P04632 1-268 partner)
Briefly: Calpain inhibition continuous fluorescence (FRET) assay, Human Calpain 9/NS1. In kind it is biochemical. The following applies: read-out: Human Calpain 9/NS1 IC50. The essentials: as §1

Assay [1] has as its system Calpain activity in SH-SY5Y cells (SBDP-150). As to the kind of experiment: SH-SY5Y Spectrin western blot assay (SBDP-150 breakdown product, A23187-induced). In kind it is cell-based. The following applies: Homo sapiens, SH-SY5Y cells, read-out: SH-SY5Y Spectrin IC50. For orientation: A western blot detects proteins with antibodies after separation by electrophoresis.
Assay [2] concerns Calpain activity in SH-SY5Y cells. Briefly: SH-SY5Y + AMC fluorescence assay (Suc-LLVY-AMC substrate). Type of assay: cell-based. The following applies: read-out: SH-SY5Y + AMC IC50.
The mark [3] stands for this setting: A23187-induced SBDP-150, western blot.
Where [4] appears, read: Column D, A23187-induced SBDP-150.

In the case of `COc1cccc(-c2nn(C)cc2C(=O)NC(Cc2ccccc2)C(=O)C(N)=O)c1F` (stereo not drawn) [Compound 509, N-(4-amino-3,4-dioxo-1-phenylbutan-2-yl)-3-(2-fluoro-3-methoxyphenyl)-1-methyl-1H-pyrazole-4-carboxamide], the IC50 at Human Calpain 1/NS1 is under 3 µM; at Human Calpain 2/NS1, under 3 µM; on Human Calpain 9/NS1, under 3 µM; in assay [1] (setting [3]), 10 to 25 µM; in assay [2], 10 to 25 µM.

`Cc1cccc(-n2nc(C)cc2C(=O)N[C@@H](Cc2ccccc2)C(=O)C(N)=O)n1` [Compound 84, (S)—N-(4-amino-3,4-dioxo-1-phenylbutan-2-yl)-3-methyl-1-(6-methylpyridin-2-yl)-1H-pyrazole-5-carboxamide]: the IC50 at Human Calpain 1/NS1 (Column A) was under 3 µM; at Human Calpain 2/NS1 (Column B), under 3 µM; at Human Calpain 9/NS1 (Column C), under 3 µM; in assay [1] (setting [4]), under 10 µM; in assay [2] (Column E) it was under 10 µM.

For the molecule `Cc1ccncc1-c1nn(C(F)F)cc1C(=O)NC(Cc1ccccc1)C(=O)C(N)=O` (stereo not drawn) [Compound 522, N-(4-amino-3,4-dioxo-1-phenylbutan-2-yl)-1-(difluoromethyl)-3-(4-methylpyridin-3-yl)-1H-pyrazole-4-carboxamide], the IC50 on Human Calpain 1/NS1 is under 3 µM; at Human Calpain 2/NS1, under 3 µM; at Human Calpain 9/NS1, under 3 µM; in assay [1] (setting [3]), over 25 µM; in assay [2], under 10 µM.

For `Cn1cc(C(=O)N[C@@H](Cc2ccccc2)C(=O)C(N)=O)c(-c2cccc(C(F)(F)F)c2)n1` [Compound 183, (S)—N-(4-amino-3,4-dioxo-1-phenylbutan-2-yl)-1-methyl-3-(3-(trifluoromethyl)phenyl)-1H-pyrazole-4-carboxamide], the IC50 at Human Calpain 1/NS1 (Column A) is under 3 µM; at Human Calpain 2/NS1 (Column B) it was under 3 µM; on Human Calpain 9/NS1 (Column C), under 3 µM; in assay [1] (setting [4]) it was under 10 µM; in assay [2] (Column E), 10 to 25 µM.

In the case of `NC(=O)C(=O)[C@H](Cc1ccccc1)NC(=O)c1c(-c2ccccc2)oc2ccccc12` [Compound 249, (S)—N-(4-amino-3,4-dioxo-1-phenylbutan-2-yl)-2-phenylbenzofuran-3-carboxamide], the IC50 at Human Calpain 1/NS1 (Column A) is under 3 µM; at Human Calpain 2/NS1 (Column B), under 3 µM; at Human Calpain 9/NS1 (Column C) it was under 3 µM; in assay [1] (setting [4]), 10 to 25 µM; in assay [2] (Column E) it was over 25 µM.

`NC(=O)C(=O)C(Cc1ccccc1)NC(=O)c1nsnc1-c1ccncc1` (stereo not drawn) [Compound 371, N-(4-amino-3,4-dioxo-1-phenylbutan-2-yl)-4-(pyridin-4-yl)-1,2,5-thiadiazole-3-carboxamide]: the IC50 at Human Calpain 1/NS1 is under 3 µM; on Human Calpain 2/NS1 it was under 3 µM; on Human Calpain 9/NS1, under 3 µM; in assay [1] (setting [3]), under 10 µM; in assay [2], under 10 µM.

Consider `Cn1cc(C(=O)NC(Cc2ccccc2)C(=O)C(N)=O)c(-c2ccc3c(c2)OCO3)n1` (stereo not drawn) [Compound 567, N-(4-amino-3,4-dioxo-1-phenylbutan-2-yl)-3-(benzo[d][1,3]dioxol-5-yl)-1-methyl-1H-pyrazole-4-carboxamide], for which the IC50 on Human Calpain 1/NS1 was under 3 µM; on Human Calpain 2/NS1, under 3 µM; on Human Calpain 9/NS1, under 3 µM; in assay [1] (setting [3]), under 10 µM; in assay [2], under 10 µM.

With `Cc1cnn(-c2ccccc2)c1C(=O)N[C@@H](Cc1ccccc1)C(=O)C(N)=O` [Compound 223, (S)—N-(4-amino-3,4-dioxo-1-phenylbutan-2-yl)-4-methyl-1-phenyl-1H-pyrazole-5-carboxamide], the IC50 on Human Calpain 1/NS1 (Column A) was under 3 µM; at Human Calpain 2/NS1 (Column B), under 3 µM; at Human Calpain 9/NS1 (Column C), under 3 µM; in assay [1] (setting [4]), 10 to 25 µM; in assay [2] (Column E), over 25 µM.

For `CCOCc1cccc(-n2nc(C)cc2C(=O)N[C@@H](Cc2ccccc2)C(=O)C(N)=O)c1` [Compound 229, (S)—N-(4-amino-3,4-dioxo-1-phenylbutan-2-yl)-1-(3-(ethoxymethyl)phenyl)-3-methyl-1H-pyrazole-5-carboxamide], the IC50 at Human Calpain 1/NS1 (Column A) was under 3 µM; at Human Calpain 2/NS1 (Column B), under 3 µM; at Human Calpain 9/NS1 (Column C), under 3 µM; in assay [1] (setting [4]), under 10 µM; in assay [2] (Column E), under 10 µM.

Regarding `NC(=O)C(=O)C(Cc1ccccc1)NC(=O)c1cn(-c2ccccc2F)nc1-c1ccccc1` (stereo not drawn) [Compound 527, N-(4-amino-3,4-dioxo-1-phenylbutan-2-yl)-1-(2-fluorophenyl)-3-phenyl-1H-pyrazole-4-carb oxamide], the IC50 at Human Calpain 1/NS1 is under 3 µM; at Human Calpain 2/NS1 it was under 3 µM; on Human Calpain 9/NS1 it was under 3 µM; in assay [1] (setting [3]), over 25 µM; in assay [2], under 10 µM.

For `Cn1cc(C(=O)N[C@@H](Cc2ccccc2)C(=O)C(N)=O)c(-c2ccncc2)n1` [Compound 170, (S)—N-(4-amino-3,4-dioxo-1-phenylbutan-2-yl)-1-methyl-3-(pyridin-4-yl)-1H-pyrazole-4-carboxamide], the IC50 on Human Calpain 1/NS1 (Column A) is under 3 µM; on Human Calpain 2/NS1 (Column B), under 3 µM; on Human Calpain 9/NS1 (Column C), under 3 µM; in assay [1] (setting [4]), over 25 µM; in assay [2] (Column E) it was over 25 µM.

As to `Cc1cc(C(=O)NC(Cc2ccccc2)C(=O)C(N)=O)n(-c2ccc(CNC(=O)c3ccc(F)cc3)cc2)n1` (stereo not drawn) [Compound 496, N-(4-amino-3,4-dioxo-1-phenylbutan-2-yl)-1-(4-((4-fluorobenzamido)methyl)phenyl)-3-methyl-1H-pyrazole-5-carboxamide], the IC50 on Human Calpain 1/NS1 was under 3 µM; at Human Calpain 2/NS1, under 3 µM; on Human Calpain 9/NS1, under 3 µM; in assay [1] (setting [3]), 10 to 25 µM; in assay [2], over 25 µM.
